This note sets out measurements from patent US11731977B2, “SGC stimulators” (Cyclerion Therapeutics, Inc., priority 2016, dated 2023).

Series [1] in a line: Rat cerebrospinal fluid (CSF) pharmacokinetic properties (Example 4). It counts as in vivo. Particulars: male, Sprague-Dawley. On the procedure:
Protocol PK in rats was determined following oral dosing. For the oral (PO) experiments, a group of 6 male Sprague-Dawley rats with an indwelling catheter placed in the cistema magna were used. The PO group was dosed with 10 mg/kg or 1 mg/kg of a compound formulated as a solution in PEG400. PO doses were administered by oral gavage and delivered to the stomach using a syringe and gavage tube. Following oral dosage administration, the gavage tube was flushed with approximately 0.5 mL of water to ensure complete delivery of the full dose.
Plasma samples were collected as follows: samples of CSF and blood were collected at 1 hour, 2, and optionally at 4 hours post-dosing. CSF samples (0.05 mL) were collected through the intracisternal catheter. Blood samples (0.25 mL) were collected through retro-orbital sampling. These samples were kept on ice until processed for plasma. Blood samples were centrifuged at 3200 rpm for 5 minutes at approximately 5° C. within 1 hour of collection. Plasma was directly transferred to a 96-well plate tube (0.125 mL). Plug caps were placed on the tubes and the tubes frozen at approximately −70° C. and stored until analysis. Plasma was collected and analyzed for the presence of a compound.
Quantitation of Compounds. The compound in question and the internal standard were extracted from plasma and CSF by precipitation. Samples were analyzed using liquid chromatography (LC) with tandem mass spectrometric detection (MS/MS) using electrospray ionization. The standard curve range was from 1 to 1000 ng/mL. Results of the compounds described herein in this assay are illustrated in Table 4a below (10 mg/kg dose) and Tables 4b and 4c below (1 mg/kg).
Kp,uu is defined as the concentration ratio of unbound drug in CSF to unbound drug in plasma. Unbound drug in plasma (or free plasma concentration) is calculated by multiplying the total plasma concentration by the unbound fraction as determined by plasma protein binding. The CSF concentration is then divided by the free plasma concentration to determine the Kp,uu. (See e.g., Di et al., J. Med. Chem., 56, 2-12 (2013))

Series [2] relates to cGMP in rat primary neurons. The series can be described thus: cGMP neuronal cell-based assay (Example 3). The settings on record: Primary neuron; rat primary hippocampal neurons; 30 μM DETA-NO; cGMP by LC-MS/MS; 50% of high control (10 μM Compound Y); read-out: Abs EC50. On the procedure:
Rat primary neurons were isolated from fetuses of 18-day pregnant Sprague-Dawley females. The fetuses were collected in Hanks' balanced salt solution (HBSS) and brains were rapidly removed. The cerebral hippocampi were isolated and mechanically fragmented. Further tissue digestion was performed with 0.25% (wt/vol) trypsin solution in HBSS without Ca2+ and Mg2+ for 15 min at 37° C. After trypsination, cells were washed and resuspended in neurobasal medium supplemented with 0.5 mM L-glutamine, 12.5 uM glutamic acid, 2% B-27 and 100 U/mL penicillin, and 100 μg/mL streptomycin. Cells were plated at a density of 4×10^4 cells/well in a poly-D-lysine coated 384-well flat clear-bottom plate (Corning Cat No 354662). Cells were incubated 6-7 days at 37° C. in a humidified chamber with 5% CO2. Media was removed and cells were washed 1× with HBSS containing Ca2+ and Mg2+, and replaced with 40 uL HBSS containing 0.5 mM IBMX, and incubated for 15 minutes at 37° C. 10 uL of a 5× stock of test compounds with diethylenetriamine NONOate (DETA-NO) was added. Final concentration of DETA-NO was 30 μM. Cells were incubated for 20 min at 37° C. Medium was removed, 50 uL of ice-cold 10% acetic acid was added, and incubated for 60 minutes at 4° C. Following centrifugation at 4° C. for 5 minutes at 1000×g to pellet cell debris, the supernatant was aspirated to a clean plate and the samples were analyzed for cGMP content. cGMP concentrations were determined from each sample using LC-MS/MS.
Data were normalized to a high control using the following equation: 100*(Sample−Low Control)/(High Control−Low Control), where the low control is the average of 15 samples treated with 1% DMSO, and the high control is the average of 15 samples treated with 10 μM a known sGC stimulator Compound Y. Data were fit using a 4-parameter fit (log(agonist) vs. response—variable slope) using GraphPad Prism Software v.5. n=2 for all compounds. The Absolute EC50 was interpolated from the curve fit and is defined as the concentration at which a given compound elicits 50% of the high control response. Compounds failing to elicit a minimum response of 50% are reported as >30 μM. For compounds run in duplicate or n higher than 2, the result herein given is the geometric mean of the several results obtained.

[3] abbreviates: 10 mg/kg PO, 1 h, unbound CSF/unbound plasma, read-out: Kp,uu (@ 1 h).
Setting [4] is: CSF, 10 mg/kg PO, 1 h, read-out: CSF Conc. (nM @ 1 h).

Read-outs that look alike come from different tables or passages of the source.

In the case of `Fc1ccccc1Cc1nc(-c2nc(C(F)(F)F)n[nH]2)cn2ccnc12` [Compound I-1, 8-(2-fluorobenzyl)-6-(3-(trifluoromethyl)-1H-1,2,4-triazol-5-yl)imidazo[1,2-a]pyrazine], the Kp uu at 1 h in series [1] (setting [3]) was found to be 0.9; in series [1] (CSF / unbound plasma, 1 mg/kg PO, @ 1 h, read-out: Kp,uu) it was 1. The same compound gave a Kp uu at 2 h in series [1] (CSF / unbound plasma, 1 mg/kg PO, @ 2 h) of 1.4. The compound further returned a Kp uu at 4 h in series [1] (CSF / unbound plasma, 1 mg/kg PO, @ 4 h) of 1.9. Moreover, the concentration at 1 h in series [1] (CSF, 1 mg/kg PO, @ 1 h, read-out: CSF Conc.) worked out at 21 nM; in series [1] (setting [4]) it was 210 nM. In series [1] (CSF, 1 mg/kg PO, @ 2 h, read-out: CSF Conc.), the concentration at 2 h is 35 nM. The concentration at 4 h in series [1] (CSF, 1 mg/kg PO, @ 4 h, read-out: CSF Conc.) was determined as 39 nM. For the same compound, the concentration for a half-maximal effect (EC50) in series [2] is at most 100 nM.

For `Fc1cccc(Cc2nc(-c3nc(C(F)(F)F)n[nH]3)cn3ccnc23)c1` [Compound I-2, 8-(3-Fluorobenzyl)-6-(3-(trifluoromethyl)-1H-1,2,4-triazol-5-yl)imidazo[1,2-a]pyrazine], the Kp uu at 1 h in series [1] (setting [3]) came to 0.9. Moreover, the concentration at 1 h in series [1] (setting [4]) came to 59 nM. Further, in series [2], the EC50 was at most 100 nM.

For `Fc1cccc(Cc2nc(-c3nc(C(F)F)n[nH]3)cn3ccnc23)c1` [Compound I-3, 6-(3-(Difluoromethyl)-1H-1,2,4-triazol-5-yl)-8-(3-fluorobenzyl)imidazo[1,2-a]pyrazine], in series [1] (setting [3]), the Kp uu at 1 h amounted to 0.8. Further, in series [1] (setting [4]), the concentration at 1 h came out at 6 nM. In addition, the EC50 in series [2] is at most 100 nM.

For the compound `Fc1cccc(Cc2nc(-c3nc(C(F)(F)F)n[nH]3)cn3ccnc23)c1F` [Compound I-10, 8-(2,3-Difluorobenzyl)-6-(3-(trifluoromethyl)-1H-1,2,4-triazol-5-yl)imidazo[1,2-a]pyrazine], in series [1] (setting [3]), the Kp uu at 1 h came out at 3.1. Moreover, in series [1] (setting [4]), the concentration at 1 h is 108 nM. Moreover, the EC50 in series [2] was at most 100 nM.

As for `Fc1cccc(Cc2nc(-c3nc(C(F)F)n[nH]3)cn3ccnc23)c1F` [Compound I-11, 8-(2,3-Difluorobenzyl)-6-(3-(difluoromethyl)-1H-1,2,4-triazol-5-yl)imidazo[1,2-a]pyrazine], in series [1] (setting [3]), the Kp uu at 1 h was 2.1. Also, in series [1] (setting [4]), the concentration at 1 h worked out at 72 nM. The EC50 in series [2] is at most 100 nM.

As for `Fc1ccccc1Cc1nc(-c2nc(C(F)F)n[nH]2)cn2ccnc12` [Compound I-14, 8-(2-Fluorobenzyl)-6-(3-(difluoromethyl)-1H-1,2,4-triazol-5-yl)imidazo[1,2-a]pyrazine], the Kp uu at 1 h in series [1] (setting [3]) was 1.7. The concentration at 1 h in series [1] (setting [4]) turned out to be 284 nM. The EC50 in series [2] was at most 100 nM.

Take `Fc1ccccc1Cc1nc(-c2nc(C(F)(F)F)n[nH]2)cn2ncnc12` [Compound I-16, 8-(2-Fluorobenzyl)-6-(3-(trifluoromethyl)-1H-1,2,4-triazol-5-yl)-[1,2,4]triazolo[1,5-a]pyrazine]: in series [1] (setting [3]), the Kp uu at 1 h stood at 1.6. Further, the concentration at 1 h in series [1] (setting [4]) is 272 nM. For the same compound, the EC50 in series [2] was at most 100 nM.

By EC50 is commonly meant the midpoint of the concentration-response curve.
